Data on 21 molecules can be found in patent US20060089378A1 (priority 2004, published 2006).

The target of one assay is T1, Cannabinoid CB1 Receptor (Homo sapiens, UniProt P21554).
T1 construct: expressed in transfected cells
Kind of assay: Binding assay for CB1 agonists or inverse agonists (radioligand competition, membranes of transfected SK-N-MC cells). Conditions: for inhibition at 0.2 µM: read-out: Cannabinoid CB1 Receptor Binding percent inhibition.

In a further assay the target is T2, Cannabinoid CB2 Receptor (Homo sapiens, UniProt P34972).
T2 construct: expressed in transfected cells
T2 sequence (P34972 whole entry): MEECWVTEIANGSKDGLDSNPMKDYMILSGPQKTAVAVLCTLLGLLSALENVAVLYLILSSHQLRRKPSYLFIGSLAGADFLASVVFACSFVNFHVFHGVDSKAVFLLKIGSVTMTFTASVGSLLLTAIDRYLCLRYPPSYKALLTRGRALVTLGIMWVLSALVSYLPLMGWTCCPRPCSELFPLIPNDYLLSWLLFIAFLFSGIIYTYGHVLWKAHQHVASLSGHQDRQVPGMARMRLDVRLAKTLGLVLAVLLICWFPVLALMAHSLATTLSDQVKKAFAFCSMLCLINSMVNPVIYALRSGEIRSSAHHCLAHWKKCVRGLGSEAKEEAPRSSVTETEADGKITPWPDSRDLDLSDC
Kind of assay: Binding assay for CB2 agonists or inverse agonists (radioligand competition, membranes of transfected SK-N-MC cells). Conditions: for inhibition at 0.2 µM: read-out: Cannabinoid CB2 Receptor Binding percent inhibition. For orientation: Displacement assays read how much labelled ligand stays bound in the presence of the test substance.

The mark [1] stands for this setting: test concentration of 0.2 μM, compounds without an IC50 binding value.

SMILES strings stand for the structures. Where two headings read alike, the source gives them in different places.

T1 sequence (P21554 whole entry): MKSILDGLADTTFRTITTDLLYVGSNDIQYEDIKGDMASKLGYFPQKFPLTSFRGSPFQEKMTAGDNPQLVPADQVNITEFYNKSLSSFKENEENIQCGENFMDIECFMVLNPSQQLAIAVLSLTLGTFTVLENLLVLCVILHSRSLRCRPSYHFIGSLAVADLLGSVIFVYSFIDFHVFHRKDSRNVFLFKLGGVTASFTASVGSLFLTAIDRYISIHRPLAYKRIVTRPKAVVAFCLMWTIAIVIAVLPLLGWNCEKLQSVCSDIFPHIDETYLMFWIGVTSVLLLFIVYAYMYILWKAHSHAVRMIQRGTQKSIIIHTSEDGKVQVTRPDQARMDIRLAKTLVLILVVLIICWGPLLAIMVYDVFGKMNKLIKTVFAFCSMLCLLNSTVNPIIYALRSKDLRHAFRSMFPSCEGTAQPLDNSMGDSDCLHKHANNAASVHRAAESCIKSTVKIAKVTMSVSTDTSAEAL

In the case of `C[C@@H](NC(=O)c1nn(-c2ccc(Cl)cc2Cl)c2c1CN(CC(=O)O)C/C2=C\c1ccc(F)cc1)c1ccccc1` [Cpd 52, (7E)-[1-(2,4-dichloro-phenyl)-7-(4-fluoro-benzylidene)-3-[(1R)-1-phenyl-ethylcarbamoyl]-1,4,6,7-tetrahydro-pyrazolo[4,3-c]pyridin-5-yl]-acetic acid], the inhibition (commonly the change of the read-out against control, counted positive when it falls) at 0.2 µM on Cannabinoid CB1 Receptor (setting [1]) was 38%; on Cannabinoid CB2 Receptor (setting [1]) it was 7%.

For `CC(=O)N1C/C(=C\c2ccc(F)cc2)c2c(c(C(=O)N(C(C)=O)N3CC4CCCC4C3)nn2-c2ccc(Cl)cc2)C1` (stereo not drawn) [Cpd 136, (7E)-5-acetyl-1-(4-chloro-phenyl)-7-(4-fluoro-benzylidene)-4,5,6,7-tetrahydro-1H-pyrazolo[4,3-c]pyridine-3-carboxylic acid acetyl-(hexahydro-cyclopenta[c]pyrrol-2-yl)-amide], the inhibition at 0.2 µM on Cannabinoid CB1 Receptor (setting [1]) was determined as 39%; on Cannabinoid CB2 Receptor (setting [1]) it was 22%.

On to `CCOC(=O)CN1CCc2c(c(C(=O)NC3C4(C)CCC(C4)C3(C)C)nn2C2CCCCC2)C1` (stereo not drawn) [Cpd 126, [1-cyclohexyl-3-(1,3,3-trimethyl-bicyclo[2.2.1]hept-2-ylcarbamoyl)-1,4,6,7-tetrahydro-pyrazolo[4,3-c]pyridin-5-yl]-acetic acid ethyl ester], for which, on Cannabinoid CB1 Receptor (human CB1, SK-N-MC cell membranes, calculated by linear regression from percent inhibition at various concentrations, read-out: Cannabinoid CB1 Receptor Binding IC50), the IC50 (in general, the concentration that gives 50% inhibition) was 1200 nM. The inhibition at 0.2 µM on Cannabinoid CB2 Receptor (setting [1]) is 49%.

With `CC(=O)N1C/C(=C\c2ccc(F)cc2)c2c(c(C(=O)NN3CCCCC3)nn2-c2ccc(Cl)cc2)C1` [Cpd 81, (7E)-5-acetyl-1-(4-chloro-phenyl)-7-(4-fluoro-benzylidene)-4,5,6,7-tetrahydro-1H-pyrazolo[4,3-c]pyridine-3-carboxylic acid piperidin-1-ylamide], the inhibition at 0.2 µM is 10% on Cannabinoid CB1 Receptor (setting [1]) and 22% on Cannabinoid CB2 Receptor (setting [1]).

Turning to `CCC(=O)N1CCc2c(c(C(=O)NC3C4(C)CCC(C4)C3(C)C)nn2Cc2ccccc2)C1` (stereo not drawn) [Cpd 110, 1-benzyl-5-propionyl-4,5,6,7-tetrahydro-1H-pyrazolo[4,3-c]pyridine-3-carboxylic acid (1,3,3-trimethyl-bicyclo[2.2.1]hept-2-yl)-amide], the IC50 on Cannabinoid CB1 Receptor was 500 nM; at Cannabinoid CB2 Receptor, 20 nM.

For the molecule `CC(C)(C)OC(=O)N1C/C(=C\c2ccc(F)cc2)c2c(c(C(=O)NN3CC4CCCC4C3)nn2-c2ccc(Cl)cc2Cl)C1` (stereo not drawn) [Cpd 88, (7E)-1-(2,4-dichloro-phenyl)-7-(4-fluoro-benzylidene)-3-(hexahydro-cyclopenta[c]pyrrol-2-ylcarbamoyl)-1,4,6,7-tetrahydro-pyrazolo[4,3-c]pyridine-5-carboxylic acid tert-butyl ester], the inhibition at 0.2 µM on Cannabinoid CB1 Receptor (setting [1]) is 53%; at Cannabinoid CB2 Receptor (setting [1]), 0%.

For `CC(C)(C)OC(=O)N1C/C(=C\c2ccc(F)cc2)c2c(c(C(=O)N3CCCCC3)nn2-c2ccc(Cl)cc2Cl)C1` [Cpd 135, (7E)-1-(2,4-dichloro-phenyl)-7-(4-fluoro-benzylidene)-3-(piperidine-1-carbonyl)-1,4,6,7-tetrahydro-pyrazolo[4,3-c]pyridine-5-carboxylic acid tert-butyl ester], the inhibition at 0.2 µM at Cannabinoid CB1 Receptor (setting [1]) was determined as 40%; on Cannabinoid CB2 Receptor (setting [1]) it was 28%.

As for `C[C@H](NC(=O)c1nn(-c2ccc(Cl)cc2Cl)c2c1CNC/C2=C\c1ccc(F)cc1)C1CCCCC1` [Cpd 5, (7E)-1-(2,4-dichloro-phenyl)-7-(4-fluoro-benzylidene)-4,5,6,7-tetrahydro-1H-pyrazolo[4,3-c]pyridine-3-carboxylic acid [(1S)-1-cyclohexyl-ethyl]-amide], the inhibition at 0.2 µM on Cannabinoid CB1 Receptor amounted to 48%; on Cannabinoid CB2 Receptor, 8%.

On to `COC(=O)N1C/C(=C\c2ccc(F)cc2)c2c(c(C(=O)NN3CCCCC3)nn2-c2ccc(Cl)cc2)C1` [Cpd 82, (7E)-1-(4-chloro-phenyl)-7-(4-fluoro-benzylidene)-3-(piperidin-1-ylcarbamoyl)-1,4,6,7-tetrahydro-pyrazolo[4,3-c]pyridine-5-carboxylic acid methyl ester], for which the IC50 at Cannabinoid CB1 Receptor amounted to 60 nM. Besides, the “Cannabinoid CB2 Receptor Binding percent inhibition” value at Cannabinoid CB2 Receptor (setting [1]) amounted to 32%.

Regarding `CCNC(=O)N1C/C(=C\c2ccc(OC)cc2)c2c(c(C(=O)NN3CC4CCCC4C3)nn2-c2ccc(Cl)cc2Cl)C1` (stereo not drawn) [Cpd 101, (7E)-1-(2,4-dichloro-phenyl)-7-(4-methoxy-benzylidene)-1,4,6,7-tetrahydro-pyrazolo[4,3-c]pyridine-3,5-dicarboxylic acid 5-ethylamide 3-[(hexahydro-cyclopenta[c]pyrrol-2-yl)-amide]], the inhibition at 0.2 µM was found to be 68% on Cannabinoid CB1 Receptor (setting [1]) and 15% at Cannabinoid CB2 Receptor (setting [1]).

Consider `CC(C)(C)OC(=O)N1C/C(=C\c2ccc(F)cc2)c2c(c(C(=O)NN3CCCCC3)nn2-c2ccc(Cl)cc2)C1` [Cpd 74, (7E)-1-(4-chloro-phenyl)-7-(4-fluoro-benzylidene)-3-(piperidin-1-ylcarbamoyl)-1,4,6,7-tetrahydro-pyrazolo[4,3-c]pyridine-5-carboxylic acid tert-butyl ester], for which the inhibition at 0.2 µM at Cannabinoid CB1 Receptor (setting [1]) was found to be 39%; on Cannabinoid CB2 Receptor (setting [1]), 3%.

For `COC(=O)N1C/C(=C\c2ccc(OC)cc2)c2c(c(C(=O)NN3CCC(O)CC3)nn2-c2ccc(Cl)cc2Cl)C1` [Cpd 144, (7E)-1-(2,4-dichloro-phenyl)-3-(4-hydroxy-piperidin-1-ylcarbamoyl)-7-(4-methoxy-benzylidene)-1,4,6,7-tetrahydro-pyrazolo[4,3-c]pyridine-5-carboxylic acid methyl ester], the inhibition at 0.2 µM on Cannabinoid CB1 Receptor (setting [1]) was 42%; at Cannabinoid CB2 Receptor (setting [1]) it was 27%.

As for `COc1ccc(/C=C2\CN(C(=O)OC(C)(C)C)Cc3c(C(=O)NN4CC5CCCC5C4)nn(-c4ccc(Cl)cc4Cl)c32)cc1` (stereo not drawn) [Cpd 94, (7E)-1-(2,4-dichloro-phenyl)-3-(hexahydro-cyclopenta[c]pyrrol-2-ylcarbamoyl)-7-(4-methoxy-benzylidene)-1,4,6,7-tetrahydro-pyrazolo[4,3-c]pyridine-5-carboxylic acid tert-butyl ester], the inhibition at 0.2 µM stood at 70% at Cannabinoid CB1 Receptor (setting [1]) and 38% at Cannabinoid CB2 Receptor (setting [1]).

Turning to `CC(C)(C)OC(=O)N1C/C(=C\c2ccc(F)cc2)c2c(c(C(=O)NN3CCC(O)CC3)nn2-c2ccc(Cl)cc2Cl)C1` [Cpd 143, (7E)-1-(2,4-dichloro-phenyl)-7-(4-fluoro-benzylidene)-3-(4-hydroxy-piperidin-1-ylcarbamoyl)-1,4,6,7-tetrahydro-pyrazolo[4,3-c]pyridine-5-carboxylic acid tert-butyl ester], the inhibition at 0.2 µM at Cannabinoid CB1 Receptor (setting [1]) is 4%; on Cannabinoid CB2 Receptor (setting [1]), 0%.

Regarding `CC12CCC(C1)C(C)(C)C2NC(=O)c1nn(C2CCCCC2)c2c1CN(C(=O)OCc1ccccc1)CC2` (stereo not drawn) [Cpd 121, 1-cyclohexyl-3-(1,3,3-trimethyl-bicyclo[2.2.1]hept-2-ylcarbamoyl)-1,4,6,7-tetrahydro-pyrazolo[4,3-c]pyridine-5-carboxylic acid benzyl ester], the IC50 at Cannabinoid CB1 Receptor was 1500 nM; at Cannabinoid CB2 Receptor, 90 nM.

As for `C[C@H](NC(=O)c1nn(-c2ccc(Cl)cc2Cl)c2c1CN(C(=O)OC(C)(C)C)C/C2=C\c1ccc(F)cc1)C1CCCCC1` [Cpd 4, (7E)-3-[(1S)-1-cyclohexyl-ethylcarbamoyl]-1-(2,4-dichloro-phenyl)-7-(4-fluoro-benzylidene)-1,4,6,7-tetrahydro-pyrazolo[4,3-c]pyridine-5-carboxylic acid tert-butyl ester], the inhibition at 0.2 µM at Cannabinoid CB1 Receptor came out at 48%; on Cannabinoid CB2 Receptor, 9%.

Consider `CC12CCC(C1)C(C)(C)C2NC(=O)c1nn(Cc2ccccc2)c2c1CN(C(=O)OCc1ccccc1)CC2` (stereo not drawn) [Cpd 108, 1-benzyl-3-(1,3,3-trimethyl-bicyclo[2.2.1]hept-2-ylcarbamoyl)-1,4,6,7-tetrahydro-pyrazolo[4,3-c]pyridine-5-carboxylic acid benzyl ester], for which the figures for the half-inhibitory concentration (IC50) on Cannabinoid CB1 Receptor and at Cannabinoid CB2 Receptor were 200 nM and 2 nM, respectively.

For the molecule `COc1ccc(/C=C2\CN(CC(=O)O)Cc3c(C(=O)N[C@H](C)c4ccccc4)nn(-c4ccc(Cl)cc4Cl)c32)cc1` [Cpd 51, (7E)-[1-(2,4-dichloro-phenyl)-7-(4-methoxy-benzylidene)-3-[(1R)-1-phenyl-ethylcarbamoyl]-1,4,6,7-tetrahydro-pyrazolo[4,3-c]pyridin-5-yl]-acetic acid], the inhibition at 0.2 µM was determined as 49% on Cannabinoid CB1 Receptor (setting [1]) and 19% at Cannabinoid CB2 Receptor (setting [1]).

Regarding `O=C(NN1CCC(O)CC1)c1nn(-c2ccc(Cl)cc2Cl)c2c1CNC/C2=C\c1ccc(F)cc1` [Cpd 145, (7E)-1-(2,4-dichloro-phenyl)-7-(4-fluoro-benzylidene)-4,5,6,7-tetrahydro-1H-pyrazolo[4,3-c]pyridine-3-carboxylic acid (4-hydroxy-piperidin-1-yl)-amide], the inhibition at 0.2 µM was 12% at Cannabinoid CB1 Receptor (setting [1]) and 5% on Cannabinoid CB2 Receptor (setting [1]).

`CC(=O)N1C/C(=C\c2ccc(F)cc2)c2c(c(C(=O)NN3CC4CCCC4C3)nn2-c2ccc(Cl)cc2)C1` (stereo not drawn) [Cpd 86, (7E)-5-acetyl-1-(4-chloro-phenyl)-7-(4-fluoro-benzylidene)-4,5,6,7-tetrahydro-1H-pyrazolo[4,3-c]pyridine-3-carboxylic acid (hexahydro-cyclopenta[c]pyrrol-2-yl)-amide]: the results for the inhibition at 0.2 µM on Cannabinoid CB1 Receptor (setting [1]) and on Cannabinoid CB2 Receptor (setting [1]) were 46% and 24%, respectively.

As for `CC(C)(C)OC(=O)N1C/C(=C\c2ccc(F)cc2)c2c(c(C(=O)NN3CC4CCCC4C3)nn2-c2ccc(Cl)cc2)C1` (stereo not drawn) [Cpd 84, (7E)-1-(4-chloro-phenyl)-7-(4-fluoro-benzylidene)-3-(hexahydro-cyclopenta[c]pyrrol-2-ylcarbamoyl)-1,4,6,7-tetrahydro-pyrazolo[4,3-c]pyridine-5-carboxylic acid tert-butyl ester], the inhibition at 0.2 µM on Cannabinoid CB1 Receptor (setting [1]) was found to be 30%; on Cannabinoid CB2 Receptor (setting [1]) it was 12%.
